# From patent US20220168472A1, “ENZYME-DEGRADABLE HYDROGEL FOR DELIVERY OF A PAYLOAD” (priority 2019, published 2022)
# Legend:
# [1] = tested on: human corneal epithelial cells (HCEpCs); assay: PDMS stencil wound assay, HCEpCs, bolus HA or MMP-9; format: cell-based; details: for increase of wound healing rate: 0.1-0.6 mg/mL
# Method: HCEpCs were cultured in a T-25 flask with keratinocyte serum-free media supplemented with keratinocyte growth serum and penicillin/streptomycin (KM; Sciencell) that was changed every other day. The SV-40 immortalized HCEpCs were generously donated from a collaborator (for example, see: F. Li, M. Griffith, Z. Li, S. Tanodekaew, H. Sheardown, M. Hakim, and D. J. Carlsson, “Recruitment of multiple cell lines by collagen-synthetic copolymer matrices in corneal regeneration,” Biomaterials, vol. 26, no. 16, pp. 3093-3104, 2005 Jun. 1, doi: https://doi.org/10.1016/j.biomaterials.2004.07.063; and/or M. Griffith, R. Osborne, R. Munger, X. Xiong, C. J. Doillon, N. L. C. Laycock, M. Hakim, Y. Song, and M. A. Watsky, “Functional Human Corneal Equivalents Constructed from Cell Lines,” Science, vol. 286, no. 5447, pp. 2169-2172, 1999, doi: 10.1126/science.286.5447.2169, the entire contents of which are incorporated herein by reference). Once confluence was reached, the HCEpCs were passaged in 2 ml of TrypLE Express (GIBCO, Life Technologies, Thermo Scientific) and subcultured for the wound assay as described previously. The HCEpCs were cultured with KM until a monolayer had formed. Wound assays were conducted as described above for RCEpCs. The well was then rinsed with PBS and replaced with KM. Images were taken daily to observe the closure of the wound and graphs were generated using GraphPad Prism 6.
# (§1) To validate the wound assays 200 kDa hyaluronic acid (151-300 kDa HA; Lifecore Biomedicals) were added to the media of both RCEpC and HCEpC PDMS wound assays. Once the wound assays were validated, the efficacy of medium sized 60 kDa HA (66-99 kDa; Lifecore Biomedicals) was investigated. Various concentrations of 60 kDa HA were dissolved in KM and added as a bolus dosage to HCEpC wound assays. The media was changed daily until full closure of the wound. Images were taken daily to observe the closure of the wound and graphs were generated using GraphPad Prism 6.
# (§2) To verify if the wound assay could provide a consistent initial wound area to two different corneal epithelial cell types, 1 mm diameter PDMS wound assays were performed with both rabbit corneal epithelial cells (RCEpCs; FIG. 20A) and human corneal epithelial cells (HCEpCs; FIG. 20B). Primary RCEpCs were initially used as they would behave similar to future in vivo rabbit studies. Healing of the wound varied between the two cell-types, with the primary RCEpC wound healing within 2 days and the HCEpC wound healing in 7 days (FIG. 20C). […] The improvement was narrowed to 21% (95.9%±6.9% wound closure) at 18.5 hours, compared to the control (74.9%±9.0%). […] HA was confirmed to be a potential drug due to its consistency among cell types, rapid ability to heal wounds, low minimum effective concentration, and cost efficiency.
# Most literature assesses the effects of native high molecular weight HA and oligomer HA on epithelial wound healing. To obtain an ideal MMP-9 controlled release profile, the influence of mid-size 60 kDa HA on corneal wound healing was investigated. PDMS-stencil wound assays were conducted using 0.05, 0.1, 0.3, 0.6, or 1.0 mg/ml of 60 kDa HA treatments daily (FIG. 21A). A 250 ng/ml MMP-9 sample was included to observe the effects of the enzyme on wound healing, similar to an in vivo environment.
# [2] = tested on: rabbit corneal epithelial cells (RCEpCs); assay: PDMS stencil wound assay, RCEpCs, bolus HA; format: cell-based
# Method: Primary rabbit corneal epithelial cells (Cell Biologics Inc.) were cultured using a T-25 flask in epithelial cell media supplemented with insulin-transferrin-selenium, epidermal growth factor, L-glutamine, antibiotic-antimycotic solution and fetal bovine serum (Cell Biologics Inc.). Once confluence was reached, the RCEpCs were briefly rinsed with PBS and passaged with trypsin-EDTA (GIBCO, Thermo Scientific). The cells were then sub-cultured on a 24-well plate surface pre-coated with a gelatin-based coating (Cell Biologics Inc.) containing a thin, punched out poly-dimethyl siloxane (PDMS) stencil adhered to the surface. The media was changed daily until a cell monolayer was formed. The PDMS disk stencil was then carefully removed from the surface. The well was then rinsed with PBS and replaced with epithelial cell media. Images were taken daily to observe the closure of the wound and graphs were generated using GraphPad Prism 6.
# as §1, §2
Substance,increase of wound healing rate ([1]; 60 hours),increase of wound healing rate ([1]; first 24 hours),"wound healing compared to the control ([1]; 0.3, 0.6, and 0.05 mg/ml daily)","wound healing compared to the control ([1]; the other HA samples (of 0.05, 0.1, 0.3, 0.6, 1.0 mg/ml) daily)","improvement in wound healing relative to the control ([2]; 0.45 mg/ml HA, 4 hours)","wound closure ([2]; 0.45 mg/ml HA, 4 hours)","improvement in wound healing relative to the control ([2]; 0.45 mg/ml HA, 18.5 hours)","wound closure ([2]; 0.45 mg/ml HA, 18.5 hours)","improvement in wound healing relative to the control ([2]; 0.75 mg/ml HA, 12 hours)","wound closure ([2]; 0.75 mg/ml HA, 12 hours)","improvement in wound healing relative to the control ([1]; 0.45 mg/ml HA, 33 hours)","wound closure ([1]; 0.45 mg/ml HA, 33 hours)","improvement in wound healing relative to the control ([1]; 0.45 mg/ml HA, 59.5 hours)","wound closure ([1]; 0.45 mg/ml HA, 59.5 hours)","improvement in wound healing relative to the control ([1]; 0.75 mg/ml HA, 18.5 hours)","wound closure ([1]; 0.75 mg/ml HA, 18.5 hours)","improvement in wound healing relative to the control ([1]; 0.75 mg/ml HA, 59.5 hours)","wound closure ([1]; 0.75 mg/ml HA, 59.5 hours)"
hyaluronic acid [60 kDa HA],24%,40%,healed rapidly,slowed wound healing compared to the control,,,,,,,,,,,,,,
hyaluronic acid [HA],,,,,149%,36.4%±14.6%,21%,95.9%±6.9%,35%,64.9%±13.6%,31%,42.8%±7.2%,19%,81.8%±7.6%,58%,27.5%±7.1%,26%,86.5%±4.2%
